Data published in ChEMBL document CHEMBL5584340, “Discovery of Novel Antiosteoporosis Leads with Bone Resorption Inhibition and Anabolic Promotion through a Chemotype-Assembly Approach” (J Med Chem, 2024).
Activity calls are given as the source filed them. The rule behind the calls is not given here.

How the values were obtained:
BMDM [1] = assay: Anti-osteoclastogenic activity in M-CSF/RANKL-induced C57BL/6 mouse BMDM cells assessed as inhibition of M-CSF/RANKL-stimulated osteoclast differentiation at 10 uM measured after 5 days by TRAP staining based microscopic analysis relative to control; type: functional; design: scale not given: the % may be the effect or the level left; details: time 5 day
BMDM [2] = assay: Anti-osteoclastogenic activity in M-CSF/RANKL-induced C57BL/6 mouse BMDM cells assessed as inhibition of M-CSF/RANKL-stimulated osteoclast differentiation measured after 5 days by TRAP staining based microscopic analysis; type: functional, cell-based; details: C57BL/6, BMDM, 120 h
[3] = Cytotoxicity against mouse RAW264.7 cells incubated for 48 hrs by CCK-8 assay; type: toxicity, cell-based
C3H 10T1/2 [4] = assay: Anabolic activity in mouse C3H 10T1/2 cells by measuring fold change in osteoblast differentiation at 10 uM incubated for 7 days by ALP staining based analysis; type: functional; details: time 7 day
BMDM [5] = assay: Anti-osteoclastogenic activity in M-CSF/RANKL-induced C57BL/6 mouse BMDM cells assessed as downregulation of ATP6VOD2 mRNA expression at 1 uM incubated for 7 days by RT-qPCR analysis; type: functional, cell-based; details: time 7.0 day
BMDM [6] = assay: Anti-osteoclastogenic activity in M-CSF/RANKL-induced C57BL/6 mouse BMDM cells assessed as downregulation of C-Fos mRNA expression at 1 uM incubated for 7 days by RT-qPCR analysis; type: functional, cell-based; details: time 7.0 day
BMDM [7] = assay: Anti-osteoclastogenic activity in M-CSF/RANKL-induced C57BL/6 mouse BMDM cells assessed as downregulation of CTSK mRNA expression at 1 uM incubated for 7 days by RT-qPCR analysis; type: functional, cell-based; details: time 7.0 day
BMDM [8] = assay: Anti-osteoclastogenic activity in M-CSF/RANKL-induced C57BL/6 mouse BMDM cells assessed as downregulation of TRACP mRNA expression at 1 uM incubated for 7 days by RT-qPCR analysis; type: functional, cell-based; details: time 7.0 day
C3H 10T1/2 [9] = assay: Induction of osteoblast mineralization in mouse C3H 10T1/2 cells assessed as increase in calcium deposition at 1 uM measured after 14 days by Alizarin Red S staining based analysis; type: functional, cell-based; details: time 14.0 day
C3H 10T1/2 [10] = assay: Induction of osteoblastogenesis in mouse C3H 10T1/2 cells assessed as upregulation of ALP gene expression at 1 uM incubated for 7 days by RT-qPCR analysis; type: functional, cell-based; details: time 7.0 day
C3H 10T1/2 [11] = assay: Induction of osteoblastogenesis in mouse C3H 10T1/2 cells assessed as upregulation of SP7 gene expression at 1 uM incubated for 7 days by RT-qPCR analysis; type: functional, cell-based; details: time 7.0 day
C3H 10T1/2 [12] = assay: Induction of osteoblastogenesis in mouse C3H 10T1/2 cells assessed as upregulation of SPARC gene expression at 1 uM incubated for 7 days by RT-qPCR analysis; type: functional, cell-based; details: time 7.0 day
C3H 10T1/2 [13] = assay: Induction of osteoclastogenesis in mouse C3H 10T1/2 cells assessed as upregulation of RANKL gene expression at 1 uM incubated for 7 days by RT-qPCR analysis; type: functional, cell-based; details: time 7.0 day
C3H 10T1/2 [14] = assay: Induction of osteoblast mineralization in mouse C3H 10T1/2 cells assessed as increase in calcium deposition at 10 uM measured after 14 days by Alizarin Red S staining based analysis; type: functional, cell-based; details: time 14.0 day
C3H 10T1/2 [15] = assay: Induction of osteoblast differentiation in mouse C3H 10T1/2 cells at 10 uM incubated for 7 days by ALP staining based analysis; type: functional, cell-based; details: time 7.0 day

Row | Compound | Activity (BMDM [1]) [%] | IC50 (BMDM [2]) [µM] | further results
1 | Cc1cc(C)c(S(=O)(=O)Nc2ccc(C(=O)O)cc2)cc1C | <10 | – | –
2 | CCOC(=O)c1sc(NC(=O)c2cc3ccccc3cc2C(=O)O)nc1C | – | 2.35 | CC50 at 48 h [3]: 506 µM
3 | CN(CCCC(=O)O)c1nc(-c2ccc(Br)cc2)cs1 | <10 | – | –
4 | O=C(O)c1ccc(N2C(=O)CSC2=S)cc1 | 79 | – | fold change (FC) (C3H 10T1/2 [4]): 7.5
5 | O=C(O)c1cc(Cl)ccc1C(=O)Nc1nccs1 | – | 2.02 | CC50 at 48 h [3]: 144 µM
6 | CCOC(=O)c1sc(NC(=O)c2ccccc2C(=O)O)nc1C | – | > 33 | –
7 | Cc1cccc(C)c1NC(=O)c1ccccc1C(=O)O [FTAXILIDE] | 80 | – | fold change (FC) (C3H 10T1/2 [4]): 6
8 | NC(Cc1cc(I)c(Oc2ccc(O)c(I)c2)c(I)c1)C(=O)O (configuration not stated) [RATHYRONINE] | <10 | – | –
9 | Cc1cc(C(=O)O)ccc1-c1ccc(CO)o1 | <10 | – | –
10 | COc1cccc(-c2cc(C(=O)O)c3ccccc3n2)c1 | <10 | – | –
11 | O=C(O)c1cccc(Nc2nc3ccccc3[nH]2)c1 | 33 | – | –
12 | O=C(O)c1cc2ccccc2cc1C(=O)Nc1nccs1 | – | 1.05 | CC50 at 48 h [3]: 490 µM; Activity (BMDM [5]): Active; Activity (BMDM [6]): Active; Activity (BMDM [7]): Active; Activity (BMDM [8]): Active; Activity (C3H 10T1/2 [9]): Active; Activity (C3H 10T1/2 [10]): Active; Activity (C3H 10T1/2 [11]): Active; Activity (C3H 10T1/2 [12]): Active; Activity (C3H 10T1/2 [13]): inactive
13 | O=C(O)c1ccccc1SCc1cc(O)nc(O)n1 | 90 | – | fold change (FC) (C3H 10T1/2 [4]): 8.2
14 | Cc1ccc(-c2nc3ccccc3c(C(=O)O)c2C)cc1 | <10 | – | –
15 | Cc1ccc(C)c(-c2cc(C(=O)O)c3ccccc3n2)c1 | <10 | – | –
16 | O=C(O)c1ccccc1C(=O)Nc1nc2c(s1)CCCC2 | <10 | – | –
17 | COc1ccc(-c2nc(NC(=O)C3CCCCC3C(=O)O)sc2C)cc1 (configuration not stated) | <10 | – | –
18 | O=C(Nc1nccs1)c1cccc(F)c1C(=O)O | – | 3.16 | CC50 at 48 h [3]: 930 µM
19 | O=C(O)C1OC(Oc2cc3oc(-c4ccc(O)cc4)cc(=O)c3c(O)c2O)C(O)C(O)C1O (configuration not stated) | 80 | – | fold change (FC) (C3H 10T1/2 [4]): <2
20 | NC(Cc1cc(I)c(Oc2cc(I)c(O)c(I)c2)c(I)c1)C(=O)O (configuration not stated) [THYROXINE] | <10 | – | –
21 | O=C(O)c1cc(Cl)ccc1C(=O)Nc1nc2ccccc2s1 | – | 3.5 | CC50 at 48 h [3]: 1330 µM
22 | Cc1ccc2nc(-c3ccc(Cl)cc3)cc(C(=O)O)c2c1 | 80 | – | fold change (FC) (C3H 10T1/2 [4]): 2.4
23 | O=C(O)c1ccccc1C(=O)Nc1nccs1 | 75 | 8.5 | fold change (FC) (C3H 10T1/2 [4]): 11.4; CC50 at 48 h [3]: 178 µM; Activity (C3H 10T1/2 [14]): Active; Activity (C3H 10T1/2 [15]): Active; Activity (C3H 10T1/2 [10]): Active; Activity (C3H 10T1/2 [11]): Active; Activity (C3H 10T1/2 [12]): Active; Activity (C3H 10T1/2 [13]): inactive
24 | Cc1cccc(NC(=O)c2ccccc2C(=O)O)c1C | <10 | – | –

Row | Compound | Activity (BMDM [1]) [%] | IC50 (BMDM [2]) [µM] | further results
25 | O=C(O)c1ccccc1C(=O)Nc1ccccn1 | – | 14.4 | CC50 at 48 h [3]: 3820 µM
26 | COc1ccccc1-c1cc(C(=O)O)c2ccccc2n1 | <10 | – | –
27 | COc1ccc(-c2occ(C(=O)O)c2C(=O)O)cc1 | <10 | – | –
28 | COC(=O)c1ccccc1C(=O)Nc1nccs1 | – | 28.1 | CC50 at 48 h [3]: 498 µM
29 | Nc1cccc(-c2cc(C(=O)O)c3ccccc3n2)c1 | 50 | – | fold change (FC) (C3H 10T1/2 [4]): <2
30 | O=C(O)c1ccccc1C(=O)Nc1nc2ccccc2s1 | – | 2.35 | CC50 at 48 h [3]: 380 µM
31 | O=C(O)c1ccc(-c2cnc3ccccc3n2)cc1 | <10 | – | –
32 | Cc1ccc(-c2cc(C(=O)O)c3cccc(C)c3n2)cc1 | <10 | – | –
33 | Cn1ncc2c(Nc3ccc(C(=O)O)cc3)ncnc21 | 50 | – | fold change (FC) (C3H 10T1/2 [4]): 3.2
34 | Nc1ccc(-c2cc(C(=O)O)c3ccccc3n2)cc1 | <10 | – | –
35 | O=C1NC(=O)C(=NNc2cccc(C(=O)O)c2)C(=O)N1 | <10 | – | –
36 | Cc1ccc(C(=O)Nc2nccs2)c(C(=O)O)c1 | – | 12.8 | CC50 at 48 h [3]: 46.9 µM
37 | O=C(Nc1nccs1)c1cccc(O)c1C(=O)O | – | > 33 | –
38 | COc1ccc(-c2cc(C(=O)O)c3ccccc3n2)cc1OC | 40 | – | –
39 | Cc1cccc(C(=O)Nc2scc(-c3cccs3)c2C(=O)O)c1 | <10 | – | –
40 | CCc1ccc(-c2cc(C(=O)O)c3ccccc3n2)cc1 | 30 | – | –
41 | CC(C)(C)c1ccc(-c2cc(C(=O)O)c3ccccc3n2)cc1 | 80 | – | fold change (FC) (C3H 10T1/2 [4]): <2
42 | O=C(O)c1cccc(NS(=O)(=O)c2ccc(I)cc2)c1 | <10 | – | –
43 | COc1cccc(C(=O)O)c1C(=O)Nc1nccs1 | – | 3.94 | CC50 at 48 h [3]: 36.3 µM
44 | Cc1ccc(-c2cc(C(=O)O)c3ccccc3n2)c(C)c1 | <10 | – | –
45 | Cc1csc(NC(=O)c2ccccc2C(=O)O)n1 | – | 12.4 | CC50 at 48 h [3]: 212 µM
46 | NCCCC(O)(P(=O)([O-])O)P(=O)(O)O.[Na+] [ALENDRONATE SODIUM] | 81 | 0.39 | –
47 | O=C(O)c1ccc2[nH]c(-c3cccc(-c4nc5cc(C(=O)O)ccc5[nH]4)c3)nc2c1 | 20 | – | –
48 | CN1C(=O)[C@@H](/N=N/c2ccccc2C(=O)O)N(C)C1=S | 50 | – | fold change (FC) (C3H 10T1/2 [4]): 3.9
